# Measurements taken from US10842794B2, “Use of Sigma-1 receptor agonist compounds” (MTA TÁMOGATOTT KUTATÓCSOPORTOK IRODÁJA, priority 2014, dated 2020).
# Columns and labels:
# Format in all cases: in vivo
# [1] = system: Streptozotocin induced type 1 diabetic rats; experiment: Diabetic rat kidney: Sirius Red staining of ECM components; details: long term 7-weeks fluvoxamine treatment
# [2] = system: rat model of bleomycin-induced lung fibrosis; experiment: Rat model of bleomycin induced pulmonary fibrosis: αSMA protein in lung, western blot; details: fluvoxamine 20 mg/bwkg/day, three weeks after bleomycin
# Description: (Bars represent Mean±SEM, n=6/group).
# For the induction of pulmonary fibrosis male Wistar rats were anesthetized. Bleomycin (5 mg/bwkg in a 300 μl solution of isotonic saline) or 300 μl isotonic saline was administered into the trachea using a 30G needle.
# Animals were randomly divided into 4 groups of 6 rats each as follows (i)—control group was sham operated, received isotonic saline per os daily for 3 weeks, (ii) vehicle treated group: received isotonic saline per os daily for 3 weeks after the induction of lung fibrosis, (iii) fluvoxamine treated group: received fluvoxamine (20 mg/bwkg/day per os for 3 weeks after the induction of lung fibrosis), (iv) fluvoxamine+NE100 treated group: received fluvoxamine (20 mg/bwkg/day; per os) and 1 mg/bwkg/day NE100 (i.p. for 3 weeks after the induction of lung fibrosis. […]
# Tissue samples were lysed in buffer containing leupeptin, aprotinin, Triton X-100, Tris-HCl, Ethylene glycol-bis (2-aminoethylether),N,N,N′,N′-tetraacetic-acid, NaF, Phenylmethylsulphonylfluoride and Na-orthovanadate (each substance were purchased from Sigma-Aldrich Co., St. Louis, Mo., USA) and centrifuged to pellet nuclei and large cellular fragments. Protein concentration of the supernatants was determined by Bradford assay (Bio-Rad Laboratories, Hercules, Calif., USA). […] Bands were analyzed with Quantity One software version 4.6.9. […]
# [3] = system: Streptozotocin induced type 1 diabetic rats; experiment: Diabetic rat kidney: PAS staining, mesangial matrix expansion
structure (smiles),measurement,setting,value
"COCCCC/C(=N\OCCN)c1ccc(C(F)(F)F)cc1 [fluvoxamine, 2-{[(E)-{5-Methoxy-1-[4-(trifluoromethyl)phenyl]pentylidene}amino]oxy}ethanamine]",diabetes induced excessive ECM accumulation (Sirius Red),[1],significantly reduced
same,bleomycin-induced αSMA production in the lung,[2],successfully reduced bleomycin-induced αSMA production nearly to the level of controls
same,extent of mesangial matrix expansion (PAS),[3]; all doses of fluvoxamine,remarkably diminished
same,"prevention of renal tissue damage (PAS), comparison of regimens",[3]; long-term (7-weeks) fluvoxamine treatment,most effective in preventing renal tissue damage
